Experimental data: patent publication US20250262336A1, “[177LU] LUTETIUM-PSMA I&T COMPOSITION AND DOSIMETRY, KIT, METHOD OF MAKING, AND METHOD OF USING THEREOF” (Curium US LLC, priority 2023, published 2025)

Test: Cycle 1 normal organ dosimetry (SPECT/CT, TIACs, OLINDA 2.2.3)
Type: in vivo, human
Settings: for Absorbed Dose, Mean / Absorbed Dose, max / Absorbed Dose, median / Absorbed Dose, min: Cycle 1, n = 26; for Absorbed Dose in Cycle 1, Mean / Absorbed Dose in Cycle 1, max / Absorbed Dose in Cycle 1, min: N = 16 patients imaged at cycle 1 and 3
Description: This Example presents the biodistribution, dosimetry, and pharmacokinetics (PK) results of a PK/Dosimetry sub-study performed as part of a Phase III trial. Twenty-seven (27) patients were administered a target activity of 7.4±10% GBq of ^177Lu-PSMA-I&T and underwent single photon emission computed tomography (SPECT)/computed tomography (CT) imaging at four timepoints (4 h, 24 h, 48 h, and 168 h). Image data was analysed to compute time-activity curves (TACs) and subsequently time-integrated activity coefficients (TIACs) in each organ of interest and in organs showing appreciable and meaningful ^177Lu-PSMA-I&T activity. Organ Level Internal Dose Assessment (OLINDA 2.2.3) was used to compute organ and whole body absorbed radiation doses for each patient.
All participating sites underwent a rigorous site setup process during which all dose calibrators, scanners, and gamma counters used in the sub-study were calibrated. Sites were allowed to enroll patients in the sub-study only after the completion and approval of all site setup processes by Invicro. Patients underwent SPECT/CT imaging, with anatomical coverage typically extending from the salivary glands to the pelvis, following the administration of a targeted 7.4±10% GBq of ^177Lu-PSMA-I&T at cycle 1. SPECT/CT imaging was performed at four timepoints: 4 h, 24 h, 48 h, and 168 h post-injection. Additionally, a subset of patients imaged at Cycle 1 (16 out of 27), were also imaged at Cycle 3 (Table 2).
In general, raw projection data was acquired into a 128×128 matrix with medium energy general purpose (MEGP) collimation using a step and shoot acquisition mode, acquiring 60 projections per detector (180 degrees rotation per detector), 20 seconds per projection, with an acquisition zoom of 1.0, and a 20% (±10%) energy window centered over 208 keV.
A low-dose CT scan was performed prior to beginning the SPECT scan for attenuation correction. Sites were instructed to use the Institutional standard parameters for acquisition of the low-dose CT. Institutional standard reconstruction parameters were used. Scatter correction was required to be applied using a 20% (±10%) scatter window centered over 170 keV.
The imaging data was analyzed using Invicro's VivoQuant software, a validated software used in a 21 CFR § 11-compliant workflow. The general quantification approach was based on the principles detailed in the Medical Internal Radiation Dose (MIRD) Pamphlet No. 16, No 23, and No 26 as appropriate.
SPECT images were calibrated in units of Becquerel (Bq) using a calibration factor derived from a source of known activity, measured during site set up with the same acquisition and reconstruction parameters employed for patient imaging. A patient-specific calibration factor was also derived at each clinical time point after acquisition of the patient SPECT/CT. As a quality control measure, if the patient-specific calibration factor differed by more than 10% from the site set up calibration factor, an investigation was conducted.
Volume of interest (VOI) (kidneys, bladder, liver, lumbar vertebrae L2-L4, lacrimal glands, salivary glands [parotid and submandibular glands], and whole body) were delineated on each dataset by a trained image analyst. […] Organs were segmented either by drawing the entire contour of the organ, or by placing a sphere in a representative region of the organ and then multiplying by the organ's effective mass (based on patient's height and weight). Segmentation methods for each organ are specified in Table 3 and were consistently applied to each patient.
Clearance of the radiopharmaceutical was derived from a data-appropriate fit of each organ's TAC. Depending on the TAC's shape, the data was fitted with the sum of one, two, or three exponentials, or using a rise and fall model. Fitting was performed with in-house Python software. TIACs were calculated through analytical integration of the curve fit extrapolated to infinity. […]

[1] = Lacrimal Glands (OLINDA sphere model)

O=C(O)CC[C@H](NC(=O)N[C@@H](CCCCNC(=O)CCCCCCC(=O)NCCCC[C@@H](NC(=O)[C@@H](Cc1ccccc1)NC(=O)[C@@H](Cc1ccc(O)c(I)c1)NC(=O)CC[C@H](C(=O)O)N1CCN(CC(=O)O)CCN(CC(=O)O)CCN(CC(=O)O)CC1)C(=O)O)C(=O)O)C(=O)O [^177Lu-PSMA-I&T, (3S,7 S,26R,29R,32R,37R)-29-benzyl-32-(4-hydroxy-3-iodobenzyl)-5,13,20,28,31,34-hexaoxo-37-(4,7,10-tris(carboxymethyl)-1,4,7,10-tetraazacyclododecan-1-yl)-4,6,12,21,27,30,33-heptaazaheptatriacontane-1,3,7,26,37-pentacarboxylic acid; lutetium-177 (III), metal not drawn]
0.17 Gy/GBq: Absorbed Dose, min (Kidneys) | Absorbed Dose in Cycle 1, min (Kidneys)
0.41 Gy/GBq: Absorbed Dose, Mean (Kidneys) | Absorbed Dose in Cycle 1, Mean (Kidneys) | Absorbed Dose, median (Left colon)
0.40 Gy/GBq: Absorbed Dose, Mean (Lacrimal Glands)
0.37 Gy/GBq: Absorbed Dose, median (Kidneys)
0.81 Gy/GBq: Absorbed Dose, max (Kidneys) | Absorbed Dose in Cycle 1, max (Kidneys)
1.53 Gy/GBq: Absorbed Dose, max (Left colon) | Absorbed Dose in Cycle 1, max (Left colon)
0.26 Gy/GBq: Absorbed Dose, median (Lacrimal Glands)
0.04 Gy/GBq: Absorbed Dose in Cycle 1, min [1] | Absorbed Dose, min (Lacrimal Glands) | Absorbed Dose, Mean (Liver) | Absorbed Dose in Cycle 1, Mean (Liver) | Absorbed Dose in Cycle 1, Mean (Osteogenic cells)
0.00 Gy/GBq: Absorbed Dose, min (Brain) | Absorbed Dose in Cycle 1, min (Brain) | Absorbed Dose, min (Esophagus) | Absorbed Dose in Cycle 1, min (Esophagus) | Absorbed Dose, min (Eyes) | Absorbed Dose in Cycle 1, min (Eyes) | Absorbed Dose, min (Gallbladder wall) | Absorbed Dose in Cycle 1, min (Gallbladder wall) | Absorbed Dose, min (Heart wall) | Absorbed Dose in Cycle 1, min (Heart wall) | Absorbed Dose, min (Lungs) | Absorbed Dose in Cycle 1, min (Lungs) | Absorbed Dose, min (Osteogenic cells) | Absorbed Dose in Cycle 1, min (Osteogenic cells) | Absorbed Dose, min (Pancreas) | Absorbed Dose in Cycle 1, min (Pancreas)
1.19 Gy/GBq: Absorbed Dose in Cycle 1, max [1] | Absorbed Dose, max (Lacrimal Glands)
0.29 Gy/GBq: Absorbed Dose, max (Osteogenic cells)
0.10 Gy/GBq: Absorbed Dose, max (Liver) | Absorbed Dose in Cycle 1, max (Liver)
0.19 Gy/GBq: Absorbed Dose in Cycle 1, max (Osteogenic cells)
0.52 Gy/GBq: Absorbed Dose in Cycle 1, Mean (Left colon)
0.03 Gy/GBq: Absorbed Dose, median (Liver)
0.01 Gy/GBq: Absorbed Dose, min (Adrenals) | Absorbed Dose in Cycle 1, min (Adrenals) | Absorbed Dose, Mean (Brain) | Absorbed Dose, median (Brain) | Absorbed Dose in Cycle 1, Mean (Brain) | Absorbed Dose, median (Esophagus) | Absorbed Dose in Cycle 1, Mean (Esophagus) | Absorbed Dose, Mean (Eyes) | Absorbed Dose, median (Eyes) | Absorbed Dose in Cycle 1, Mean (Eyes) | Absorbed Dose, median (Gallbladder wall) | Absorbed Dose, median (Heart wall) | Absorbed Dose in Cycle 1, Mean (Heart wall) | Absorbed Dose, min (Left colon) | Absorbed Dose in Cycle 1, min (Left colon) | Absorbed Dose, min (Liver) | Absorbed Dose in Cycle 1, min (Liver) | Absorbed Dose, Mean (Lungs) | Absorbed Dose, median (Lungs) | Absorbed Dose in Cycle 1, Mean (Lungs) | Absorbed Dose, median (Pancreas) | Absorbed Dose, median (Prostate) | Absorbed Dose, min (Prostate)
0.07 Gy/GBq: Absorbed Dose, max (Brain) | Absorbed Dose in Cycle 1, max (Brain) | Absorbed Dose, max (Esophagus) | Absorbed Dose in Cycle 1, max (Esophagus) | Absorbed Dose, max (Eyes) | Absorbed Dose in Cycle 1, max (Eyes) | Absorbed Dose, max (Gallbladder wall) | Absorbed Dose in Cycle 1, max (Gallbladder wall) | Absorbed Dose, max (Heart wall) | Absorbed Dose in Cycle 1, max (Heart wall) | Absorbed Dose, max (Lungs) | Absorbed Dose in Cycle 1, max (Lungs) | Absorbed Dose, max (Pancreas) | Absorbed Dose in Cycle 1, max (Pancreas) | Absorbed Dose, max (Prostate)
0.47 Gy/GBq: Absorbed Dose, Mean (Left colon)
0.05 Gy/GBq: Absorbed Dose, Mean (Osteogenic cells)
0.02 Gy/GBq: Absorbed Dose, Mean (Adrenals) | Absorbed Dose, median (Adrenals) | Absorbed Dose in Cycle 1, Mean (Adrenals) | Absorbed Dose, Mean (Esophagus) | Absorbed Dose, Mean (Gallbladder wall) | Absorbed Dose in Cycle 1, Mean (Gallbladder wall) | Absorbed Dose, Mean (Heart wall) | Absorbed Dose, median (Osteogenic cells) | Absorbed Dose, Mean (Pancreas) | Absorbed Dose in Cycle 1, Mean (Pancreas) | Absorbed Dose, Mean (Prostate)
0.39 Gy/GBq: Absorbed Dose in Cycle 1, Mean [1]
0.08 Gy/GBq: Absorbed Dose, max (Adrenals) | Absorbed Dose in Cycle 1, max (Adrenals)
